Columns and labels:
[1] = tested on: canine fetal myoblasts; assay: SDF-1 induced transwell cell migration; assay type: cell-based; settings: 30 μM
Method: Cells were placed at a concentration of 5×10^4/well in the upper chamber (BD Biosciences), and the chamber was placed in a 24-well culture plate (BD Biosciences) containing culture medium and 100 nM SDF-1 for measuring the migratory capacity of myoblast cells. After 48 hours of incubation at 37° C., the medium was removed, and the insert was transferred to a second plate containing Calcein-AM solution. The plates were incubated for 90 minutes at 37° C. in a 5% CO2 incubator. The fluorescence of migrating cells was read in a fluorescence microplate reader with bottom reading capabilities at excitation/emission wavelengths of 485/530 nm. […] Apoj expression can also provide protection against apoptotic stem cell death. This finding is consistent with published results that ApoJ expression can provide some protection against apoptotic cell death. Exposure to oxidized cholesterol or oxysterol often triggers apoptosis in a variety of cells and atheroma contains abundant oxysterols such as 7-ketocholsterol. Therefore, a study was done to establish that ApoJ expression will exert protective effects against apoptotic cell death for stem cells. After incubation of vascular smooth muscle cells from the aorta of ApoJ-knockout mice or wild-type mice with 10 μg/ml 7-ketocholsterol for 24-48 the cells were examined for viability by stained with a combination of acridine orange and ethidium bromide. […]

[2] = tested on: KG-293 cells; assay: TCN-induced ApoJ expression and TNF-α induced apoptosis in KG-293 cells; assay type: cell-based, human; settings: 10 ng/ml for 24- and 48-hours
Description: Recent studies have shown that ApoJ can be induced by certain growth factors such as TGF-ß translocate to the nucleus participating in apoptosis regulation. To determine whether intracellular expression of ApoJ inhibits receptor-mediated apoptosis induced by cytokines, we constructed a plasmid (pkS7) with ApoJ cDNA insert lacking the sequence for the domain of protein secretion. The non-secreted, intracellular isoform of ApoJ gene mimics the intracellular isoform inducible by TGF-ß. Under regulation by a CMV promoter with TCN-responding elements, pKS7 transfection of HEK293 cells generated a stable cell line (KG-293) with ApoJ over expression. […] KG-293 cells over expressing the intracellular form of ApoJ also underwent dramatic alterations in morphology and proliferation.

| Molecule | effect on SDF-1 induced migration of ApoJ-overexpressing myoblasts [1] | apoptosis in control KG-293 cells not exposed to TCN [2] |
| --- | --- | --- |
| COc1cccc(-c2cc(=O)c3ccccc3o2)c1N [PD98059] | did not have any significant impact | – |
| TNF-α | – | marked apoptosis |

From patent publication US10639277B1, “Multi-functional echogenic immunoliposomes for directed stem cell delivery to atheroma” (BOARD OF REGENTS OF THE UNIVERSITY OF TEXAS SYSTEM, priority 2009, dated 2020)
